Each structure is given as a SMILES string. Like-named read-outs stand apart in the source and are kept apart here.

Format in all cases: cell-based, human
In assay [1] the test system is IL-10-induced JAK1/TYK2 signal pathway. In words: IL-10-induced JAK1/TYK2 signal pathway STAT3-Luc reporter gene assay in U2OS cells. Conditions: U2OS cells, STAT3-Luc reporter, IL-10 10 ng/mL, read-out: Half inhibition dose (IC50) on IL-10-induced JAK1/TYK2 signal pathway. The method, boiled down: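 U2OS cells co-transfected with IL-10R1-EGFP and STAT3-luciferase reporter plasmids; after 24 h, compound added (0–300 nM) for 6 h before 10 ng/mL human IL-10, then 24 h culture. Luciferase signal normalised to GFP for transfection efficiency; IC50 from inhibition rates.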
Background: In a reporter assay the amount or activity of a reporter protein is the signal.

Assay [2] relates to EPO-induced JAK2 signal pathway. In words: EPO-induced proliferation of UT-7 cells (JAK2 signal). Conditions: Homo sapiens, UT7; UT-7 cell proliferation, EPO 10 ng/mL, 72 hours; read-out: Inhibition activity IC50 on EPO-induced JAK2 signal pathway. An outline of the steps:
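UT-7 cells (15000/well) stimulated with 10 ng/mL human recombinant EPO plus compound at final 0, 100, 1000 or 10000 nM, 72 h at 37° C., 5% CO2. Proliferation by alamarBlue fluorescence (Ex530/Em590); inhibition normalised to no-cytokine/no-compound (0) and EPO-only (100) wells, […] derived from dose-inhibition.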

For assay [3], the system named is IL-2-induced JAK1/JAK3 signal pathway. The assay is described as follows: IL-2-induced proliferation of KHYG-1 cells (JAK1/JAK3 signal). Conditions: Homo sapiens; KHYG-1 cell proliferation, IL-2 10 ng/mL, 72 hours; read-out: Inhibition activity IC50 on IL-2-induced JAK1/JAK3 signal pathway. An outline of the steps:
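KHYG-1 NK lymphoma cells were cultured with IL-2 and test compound at various doses for 72 h at 37 °C and 5% CO2, and proliferation was read with alamarBlue fluorescence. Inhibition was normalized to wells without compound or cytokine (0%) and IL-2 wells without compound (100%), and C50 was derived from the dose-inhibition data.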

Regarding `CONC(=O)c1cnc(Nc2ccc(F)cn2)cc1Nc1ccc(OCC2CC2)cc1N(C)S(C)(=O)=O` [Example 61, 4-((4-(cyclopropylmethoxy)-2-(N-methylmethanesulfonamido)phenyl)amino)-6-((5-fluoropyridin-2-yl)amino)-N-methoxy nicotinamide], the IC50 in assay [1] (Homo sapiens, U2OS) was 0.0017 µM; in assay [2], over 10 µM; in assay [3] it was over 10 µM.
For `CONC(=O)c1cnc(NC(=O)C2CC2)cc1Nc1cccc(-c2ncn(C)n2)c1OC` [Example 69, 6-(cyclopropylcarboxamido)-N-methoxy-4-((2-methoxy-3-(1-methyl-1H-1,2,4-triazol-3-yl)phenyl)amino)-nicotinamide], the results for the IC50 in assay [1] (Homo sapiens), in assay [2] and in assay [3] were 0.00278 µM, over 10 µM and over 10 µM, respectively.
Turning to `CONC(=O)c1cnc(Nc2ccc(OC)cn2)cc1Nc1ccc(C)cc1N(C)S(C)(=O)=O` [Example 108], the IC50 in assay [1] (Homo sapiens, U2OS) was 0.00187 µM; in assay [2], over 10 µM; in assay [3], over 10 µM.
Turning to `CONC(=O)c1cnc(Nc2cccc(F)n2)cc1Nc1cccc(-n2cccn2)c1OC` [Example 42, 6-((6-fluoropyridin-2-yl)amino)-N-methoxy-4-((2-methoxy-3-(1H-pyrazol-1-yl)phenyl)amino)nicotinamide], the IC50 is 0.00151 µM in assay [1] (Homo sapiens, U2OS); over 10 µM in assay [2]; over 10 µM in assay [3].
Consider `CCONC(=O)c1cnc(Nc2cccc(C)n2)cc1Nc1ccc(C2CC2)cc1N(C)S(C)(=O)=O` [Example 146, 4-((4-cyclopropyl-2-(N-methylmethanesulfonamido)phenyl)amino)-N-ethoxy-6-((6-methylpyridin-2-yl)amino)nicotinamide], for which the figures for the IC50 in assay [1], in assay [2] and in assay [3] were 0.00252 µM, over 10 µM and over 10 µM, respectively.
In the case of `CCONC(=O)c1cnc(Nc2cc(C)nc(C)n2)cc1Nc1ccc(C)cc1N(C)S(=O)(=O)C1CC1` [Example 175], the IC50 was 0.000839 µM in assay [1] (Homo sapiens, U2OS); over 10 µM in assay [2]; over 10 µM in assay [3].
As for `CCONC(=O)c1cnc(Nc2cc(C)nc(C)n2)cc1Nc1ccc(OC(C)C)cc1N(C)S(C)(=O)=O` [Example 178, 6-((2,6-dimethylpyrimidin-4-yl)amino)-N-ethoxy-4-((4-isopropoxy-2-(N-methylmethanesulfonamido)phenyl)amino)nicotinamide], the IC50 in assay [1] (Homo sapiens, U2OS) is 0.00128 µM; in assay [2], over 10 µM; in assay [3], over 10 µM.
Consider `CCONC(=O)c1cnc(Nc2cc(C)nc(C)n2)cc1Nc1cccc(-c2ncc(Cl)cn2)c1OC` [Example 218, 4-((3-(5-chloropyrimidin-2-yl)-2-methoxyphenyl)amino)-6-((2,6-dimethylpyrimidin-4-yl)amino)-N-ethoxy nicotinamide], for which the IC50 is 0.000171 µM in assay [1] (Homo sapiens), over 10 µM in assay [2] and over 10 µM in assay [3].
`Cc1cc(Nc2cc(Nc3ccc(C4CC4)cc3N(C)S(C)(=O)=O)c(C(=O)NOCC(F)(F)F)cn2)nc(C)n1` [Example 118]: the IC50 in assay [1] (Homo sapiens, U2OS) was 0.00128 µM; in assay [2], over 10 µM; in assay [3], over 10 µM.
With `CCONC(=O)c1cnc(Nc2ncc(F)cc2F)cc1Nc1cccc(-c2ncccn2)c1OC` [Example 242, 6-((3,5-difluoropyridin-2-yl)amino)-N-ethoxy-4-((2-methoxy-3-(pyrimidin-2-yl)phenyl)amino)nicotinamide], the IC50 in assay [1] (Homo sapiens) was 0.00212 µM; in assay [2], over 10 µM; in assay [3] it was over 10 µM.
As for `CONC(=O)c1cnc(Nc2cccc(F)n2)cc1Nc1ccc(OCC2CC2)cc1N(C)S(C)(=O)=O` [Example 62, 4-((4-(cyclopropylmethoxy)-2-(N-methylmethanesulfonamido)phenyl)amino)-6-((6-fluoropyridin-2-yl)amino)-N-methoxy nicotinamide], the IC50 in assay [1] (Homo sapiens, U2OS) was 0.00129 µM; in assay [2] it was over 10 µM; in assay [3], over 10 µM.
For `CCONC(=O)c1cnc(Nc2cc(C)nc(C)n2)cc1Nc1ccc(CC)cc1N(C)S(C)(=O)=O` [Example 180], the values for the IC50 in assay [1] (Homo sapiens), in assay [2] and in assay [3] were 0.00113 µM, over 10 µM and over 10 µM, respectively.
`CCONC(=O)c1cnc(Nc2cc(C)nc(C)n2)cc1Nc1cc(F)cc(-c2cnccn2)c1OC` [Example 258, 6-((2,6-dimethylpyrimidin-4-yl)amino)-N-ethoxy-4-((5-fluoro-2-methoxy-3-(pyrazin-2-yl)phenyl)amino)nicotinamide]: the IC50 is 0.00215 µM in assay [1] (Homo sapiens, U2OS); over 10 µM in assay [2]; over 10 µM in assay [3].
As for `CONC(=O)c1cnc(NC(=O)C2CC2)cc1Nc1ccccc1N(C)S(C)(=O)=O` [Example 2, 6-(cyclopropylcarboxamido)-N-methoxy-4-((2-(N-methylmethanesulfonamido)phenyl)amino)nicotinamide], the IC50 in assay [1] (Homo sapiens, U2OS) was 0.00158 µM; in assay [2], over 10 µM; in assay [3], over 10 µM.
Take `CONC(=O)c1cnc(NC(=O)C2CC2)cc1Nc1ccc(Cl)cc1N(C)S(C)(=O)=O` [Example 79, 4-((4-chloro-2-(N-methylmethanesulfonamido)phenyl)amino)-6-(cyclopropylcarboxamido)-N-methoxy nicotinamide]: the IC50 in assay [1] (Homo sapiens, U2OS) was 0.000889 µM; in assay [2], over 10 µM; in assay [3], over 10 µM.
Consider `CONC(=O)c1cnc(Nc2ccc(OC)cn2)cc1Nc1ccc(C2CC2)cc1N(C)S(C)(=O)=O` [Example 16, 4-((4-cyclopropyl-2-(N-methylmethanesulfonamido)phenyl)amino)-N-methoxy-6-((5-methoxypyridin-2-yl)amino)nicotinamide], for which the IC50 is 0.00127 µM in assay [1] (Homo sapiens, U2OS); over 10 µM in assay [2]; over 10 µM in assay [3].
Regarding `CONC(=O)c1cnc(Nc2cccc(F)n2)cc1Nc1cccnc1N(C)S(C)(=O)=O` [Example 36, 6-((6-fluoropyridin-2-yl)amino)-N-methoxy-4-((2-(N-methylmethanesulfonamido)pyridin-3-yl)amino)nicotinamide], the IC50 in assay [1] (Homo sapiens, U2OS) is 0.000686 µM; in assay [2], over 10 µM; in assay [3] it was over 10 µM.
Turning to `CONC(=O)c1cnc(Nc2ccc(C#N)cn2)cc1Nc1ccccc1N(C)S(C)(=O)=O` [Example 43, 6-((5-cyanopyridin-2-yl)amino)-N-methoxy-4-((2-(N-methylmethanesulfonamido)phenyl)amino)nicotinamide], the IC50 is 0.00118 µM in assay [1] (Homo sapiens, U2OS); over 10 µM in assay [2]; over 10 µM in assay [3].
Regarding `CONC(=O)c1cnc(Nc2cc(C)c(F)cn2)cc1Nc1ccc(C2CC2)cc1N(C)S(C)(=O)=O` [Example 110], the IC50 is 0.00151 µM in assay [1] (Homo sapiens, U2OS); over 10 µM in assay [2]; over 10 µM in assay [3].
As for `CCONC(=O)c1cnc(NC(=O)C2CC2)cc1Nc1cc(F)cc(-c2ncc(F)cn2)c1OC` [Example 210, 6-(cyclopropylcarboxamido)-N-ethoxy-4-((5-fluoro-3-(5-fluoropyrimidin-2-yl)-2-methoxyphenyl)amino)nicotinamide], the IC50 in assay [1] (Homo sapiens, U2OS) was 0.000958 µM; in assay [2], over 10 µM; in assay [3], over 10 µM.
With `CCONC(=O)c1cnc(Nc2ccccn2)cc1Nc1ccc(C2CC2)cc1N(C)S(C)(=O)=O` [Example 138, 4-((4-cyclopropyl-2-(N-methylmethanesulfonamido)phenyl)amino)-N-ethoxy-6-(pyridin-2-ylamino)nicotinamide], the IC50 in assay [1] (Homo sapiens, U2OS) was 0.000601 µM; in assay [2], over 10 µM; in assay [3], over 10 µM.
Turning to `CCONC(=O)c1cnc(NC(=O)C2CC2)cc1Nc1cccc(-c2ncc(F)cn2)c1OC` [Example 209, 6-(cyclopropylcarboxamido)-N-ethoxy-4-((3-(5-fluoropyrimidin-2-yl)-2-methoxyphenyl)amino)nicotinamide], the IC50 in assay [1] (Homo sapiens, U2OS) was 0.00178 µM; in assay [2], over 10 µM; in assay [3], over 10 µM.
As for `CONC(=O)c1cnc(Nc2cccc(F)n2)cc1Nc1ccc(C2CC2)cc1N(C)S(C)(=O)=O` [Example 14, 4-((4-cyclopropyl-2-(N-methylmethanesulfonamido)phenyl)amino)-6-((6-fluoropyridin-2-yl)amino)-N-methoxy nicotinamide], the IC50 was 0.000874 µM in assay [1] (Homo sapiens, U2OS); over 10 µM in assay [2]; over 10 µM in assay [3].
With `CCONC(=O)c1cnc(NC(=O)C2CC2)cc1Nc1ccc(C2CC2)cc1N(C)S(C)(=O)=O` [Example 139, 6-(cyclopropylcarboxamido)-4-((4-cyclopropyl-2-(N-methylmethanesulfonamido)phenyl)amino)-N-ethoxy nicotinamide], the IC50 in assay [1] (Homo sapiens, U2OS) is 0.0014 µM; in assay [2], over 10 µM; in assay [3], over 10 µM.

Values taken from patent US20240101548A1, “HYDROXAMATE COMPOUND, PREPARATION METHOD THEREFOR AND APPLICATION THEREOF” (SHENZHEN CHIPSCREEN BIOSCIENCES CO., LTD., priority 2020, published 2024).
